Measurements as given in patent publication US8916594B2, “5-membered ring heteroaromatic derivatives having NPY Y5 receptor antagonistic activity” (Shionogi & Co., Ltd., priority 2011, dated 2014).

Target: T1, human NPY Y5 receptor (Homo sapiens (Human), UniProt Q15761)
Experiment: Affinity for human NPY Y5 receptor ([125I] peptide YY binding, CHO cell membranes)
Conditions: membranes from CHO cells expressing human NPY Y5 receptor, [125I] peptide YY 60 pM, 25° C., 2 hours; read-out: 50% inhibitory concentration against the specific peptide YY binding (IC50 value)
Text: (§1) cDNA sequence encoding a human NPY Y5 receptor (WO96/16542) was cloned in a vector (pME18S, Takebe et al. Mol. Cell. Biol. 8, 466-472). The obtained expression vector was transfected into CHO cells as a host by using Lipofect AMINE reagent (Trademark, Inbitrogen) according to the instruction manual. The cells that stably express human NPY Y5 receptor were obtained.
(§2) The membranes prepared from the CHO cells expressing human NPY Y5 receptor, the compound of this invention and 30,000 cpm [^1251] peptide YY (60 pM of final concentration: Healthcare) were incubated in the assay buffer (20 mM HEPES-Hanks buffer containing 0.1% bovine serum albumin, pH 7.4) at 25° C. for 2 hours, and then the membrane was filtered from the mixture through a glassfilter (GF/C) presoaked with 1% polyethyleneimine. After washing with 50 mM Tris-HCl buffer (pH 7.4), radioactivity retained on the filters was quantified with a gamma counter. Nonspecific binding was defined as the amount of radioactivity bound to the membranes after incubation in the presence of 200 nM of peptide YY. The 50% inhibitory concentration of the test compound against the specific peptide YY binding (IC50 value) was calculated (Inui, A. et al. Endocrinology 131, 2090-2096 (1992)).

T1 sequence (Q15761 whole entry): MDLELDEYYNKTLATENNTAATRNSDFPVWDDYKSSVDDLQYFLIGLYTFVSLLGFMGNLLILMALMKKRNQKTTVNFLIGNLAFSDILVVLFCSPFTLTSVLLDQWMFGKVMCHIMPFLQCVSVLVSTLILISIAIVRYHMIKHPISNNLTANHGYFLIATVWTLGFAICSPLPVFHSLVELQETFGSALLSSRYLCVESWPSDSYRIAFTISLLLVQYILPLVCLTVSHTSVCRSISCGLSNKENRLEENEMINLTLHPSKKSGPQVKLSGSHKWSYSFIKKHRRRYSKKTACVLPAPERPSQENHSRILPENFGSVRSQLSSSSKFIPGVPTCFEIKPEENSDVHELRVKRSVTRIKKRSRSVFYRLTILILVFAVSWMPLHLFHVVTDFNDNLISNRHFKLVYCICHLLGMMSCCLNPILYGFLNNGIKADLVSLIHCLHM

| Compound | IC50 |
| --- | --- |
| CCS(=O)(=O)NC[C@H]1CC[C@H](Nc2nc(-c3cccc(F)c3)no2)CC1 [Compound I-017] | 810 pM |
| CCS(=O)(=O)NC[C@H]1CC[C@H](Nc2nc(-c3ccc(F)c(F)c3)no2)CC1 [Compound I-029] | 860 pM |

Target: mouse NPY Y5 receptor (Mus musculus (Mouse), UniProt O70342)
Sequence (O70342 whole entry): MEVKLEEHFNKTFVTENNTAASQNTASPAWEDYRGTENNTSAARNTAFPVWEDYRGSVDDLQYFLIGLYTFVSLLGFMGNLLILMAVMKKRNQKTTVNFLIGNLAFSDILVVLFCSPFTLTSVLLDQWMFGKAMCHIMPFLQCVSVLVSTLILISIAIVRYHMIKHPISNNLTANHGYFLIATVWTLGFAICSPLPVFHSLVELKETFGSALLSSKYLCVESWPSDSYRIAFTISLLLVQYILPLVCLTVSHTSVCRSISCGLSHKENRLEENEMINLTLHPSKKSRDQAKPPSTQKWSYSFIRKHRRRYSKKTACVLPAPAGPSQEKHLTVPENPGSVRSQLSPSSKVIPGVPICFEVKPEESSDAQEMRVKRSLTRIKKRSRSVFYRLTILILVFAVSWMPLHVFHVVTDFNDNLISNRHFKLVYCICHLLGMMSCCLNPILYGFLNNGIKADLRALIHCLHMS
Experiment: Affinity for mouse NPY Y5 receptor ([125I] peptide YY binding, CHO cell membranes)
Conditions: membranes from CHO cells expressing mouse NPY Y5 receptor, [125I] peptide YY 60 pM, 25° C., 2 hours; read-out: 50% inhibitory concentration against the specific peptide YY binding (IC50 value)
Text: as §1, with “mouse” for “human”, “(Biochim. Biophys. Acta 1328:83-89, 1997)” for “(WO96/16542)”, “8957).” for “466-472).”, “Gico BRL Co., Ltd.)” for “Inbitrogen)”, “express” for “express human”
as §2, with “expressing” for “expressing human”, “[^125I]” for “[^1251]”, “glass filter” for “glassfilter”

| Compound | IC50 |
| --- | --- |
| CCS(=O)(=O)NC[C@H]1CC[C@H](Nc2nc(-c3ccc(F)cc3)no2)CC1 [Compound I-006] | 320 pM |
| CCS(=O)(=O)NC[C@H]1CC[C@H](Nc2nc(-c3ccccc3)no2)CC1 [Compound I-011] | 340 pM |
| CCS(=O)(=O)NC[C@H]1CC[C@H](Nc2nc(-c3cccc(F)c3)no2)CC1 [Compound I-017] | 220 pM |
| CC(C)S(=O)(=O)NC[C@H]1CC[C@H](Nc2nc(-c3cccc(F)c3)no2)CC1 [Compound I-018] | 200 pM |
| CS(=O)(=O)NC[C@H]1CC[C@H](Nc2nc(-c3ccc(F)cc3)no2)CC1 [Compound I-023] | 1400 pM |
| CC(C)S(=O)(=O)NC[C@H]1CC[C@H](Nc2nc(-c3ccccc3)no2)CC1 [Compound I-024] | 130 pM |
| CS(=O)(=O)NC[C@H]1CC[C@H](Nc2nc(-c3cccc(F)c3)no2)CC1 [Compound I-027] | 860 pM |
| CCS(=O)(=O)NC[C@H]1CC[C@H](Nc2nc(-c3ccc(F)c(F)c3)no2)CC1 [Compound I-029] | 220 pM |
| CCS(=O)(=O)NC[C@H]1CC[C@H](Nc2nc(-c3ccc(F)cc3F)no2)CC1 [Compound I-034] | 180 pM |
| CCS(=O)(=O)NC[C@H]1CC[C@H](Nc2nc(-c3cc(F)cc(F)c3)no2)CC1 [Compound I-053] | 230 pM |
| CS(=O)(=O)NC[C@H]1CC[C@H](Nc2nc(-c3cccc(Cl)c3)no2)CC1 [Compound I-081] | 900 pM |
| CC(C)S(=O)(=O)NC[C@H]1CC[C@H](Nc2nc(-c3ccc(F)cn3)no2)CC1 [Compound I-099] | 800 pM |
| CC(C)(C)S(=O)(=O)NC[C@H]1CC[C@H](Nc2nc(-c3ccc(F)cn3)no2)CC1 [Compound I-100] | 900 pM |
| CC(C)(c1ccccc1)c1noc(N[C@H]2CC[C@H](CNS(=O)(=O)C(C)(C)C)CC2)n1 [Compound I-130] | 700 pM |
| CC(C)(C)S(=O)(=O)NC[C@H]1CC[C@H](Nc2nc(C(F)(F)F)no2)CC1 [Compound I-136] | 1500 pM |
| CCS(=O)(=O)NC[C@H]1CC[C@H](Nc2nc(C3(F)CCCC3)no2)CC1 [Compound I-138] | 500 pM |
| CC1(c2noc(N[C@H]3CC[C@H](CNS(=O)(=O)C(C)(C)C)CC3)n2)CC(F)(F)C1 [Compound I-143] | 800 pM |
| CC(C)S(=O)(=O)NC[C@H]1CC[C@H](Nc2nc(C(F)(F)F)no2)CC1 [Compound I-145] | 3100 pM |
| CC(C)(C)S(=O)(=O)NC[C@H]1CC[C@H](Nc2nc(C(F)(F)F)co2)CC1 [Compound I-146] | 4210 pM |
| CC(C)S(=O)(=O)NC[C@H]1CC[C@H](Nc2nc(C3(C)CC(F)(F)C3)no2)CC1 [Compound I-147] | 610 pM |
| CC(C)(C)S(=O)(=O)NC[C@H]1CC[C@H](Nc2nc(C(F)(F)C(F)(F)F)no2)CC1 [Compound I-149] | 1040 pM |
| CC(C)S(=O)(=O)NC[C@H]1CC[C@H](Nc2nc(C(F)(F)F)co2)CC1 [Compound I-150] | 3600 pM |
| CC(C)S(=O)(=O)NC[C@H]1CC[C@H](Nc2nc(C(F)(F)C(F)(F)F)no2)CC1 [Compound I-152] | 650 pM |
| CCS(=O)(=O)NC[C@H]1CC[C@H](Nc2nc(C(F)(F)C(F)(F)F)no2)CC1 [Compound I-153] | 1670 pM |
| CC(C)(C)S(=O)(=O)NC[C@H]1CC[C@H](Nc2nc(C3(F)CC(F)(F)C3)no2)CC1 [Compound I-161] | 1900 pM |

Target: T1, human NPY Y5 receptor
Experiment: Inhibitory effect on cAMP production in CHO cells
Format: cell-based
Conditions: CHO cells expressing human NPY Y5 receptor, 50 nM NPY, 10 μM forskolin; read-out: 50% inhibitory concentration (IC50 value) against the NPY activity on forskolin stimulated cAMP production
Description: CHO cells expressing human NPY Y5 receptor were incubated in the presence of 2.5 mM isobutylmethylxanthine (SIGMA) at 37° C. for 20 min. After the incubation the compound of the present invention was added, and then the mixture was incubated for 5 min. Next, 50 nM NPY and 10 μM forskolin (SIGMA) were added, and the mixture was incubated for 30 min. After termination of the reaction by adding 1N HCl, the amount of cAMP in the supernatant was determined with an EIA kit (Amersham LIFE SCIENCE). The inhibitory activity of NPY against forskolin stimulated cAMP production was expressed as 100% and the 50% inhibitory concentration (IC50 value) of the compound of the present invention against the NPY activity was calculated.

| Compound | IC50 |
| --- | --- |
| CCS(=O)(=O)NC[C@H]1CC[C@H](Nc2nc(-c3cccc(F)c3)no2)CC1 [Compound I-017] | 3300 pM |
| CC(C)S(=O)(=O)NC[C@H]1CC[C@H](Nc2nc(-c3cccc(F)c3)no2)CC1 [Compound I-018] | 2100 pM |
| CCS(=O)(=O)NC[C@H]1CC[C@H](Nc2nc(-c3ccc(F)c(F)c3)no2)CC1 [Compound I-029] | 1300 pM |
